From ChEMBL document CHEMBL1201862, “PubChem BioAssay data set” (2004)
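96-well plates; 48 h exposure; 5 concentrations. Endpoints by linear interpolation between flanking doses. Not reached: highest tested concentration assigned. Abbreviation: GI50, concentration required for 50% inhibition of growth.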 Calls of active or inactive are those of the source. No stated cut-off is given here; in the data, active = GI50 up to about 1.1 µM and inactive = higher.

Tests used:
Assay in all cases: NCI-60 cell line screen, 48 h
786-0 = test system: 786-0
A498 = test system: A498
A549 = test system: A549
ACHN = test system: ACHN
BT-549 = test system: BT-549
CAKI-1 = test system: CAKI-1
CCRF-CEM = test system: CCRF-CEM
COLO 205 = test system: COLO 205
DU-145 = test system: DU-145
EKVX = test system: EKVX
HCC 2998 = test system: HCC 2998
HCT-116 = test system: HCT-116
HCT-15 = test system: HCT-15
HL-60 = test system: HL-60
HOP-62 = test system: HOP-62
HOP-92 = test system: HOP-92
HT-29 = test system: HT-29
Hs-578T = test system: Hs-578T
IGROV-1 = test system: IGROV-1
K562 = test system: K562
KM12 = test system: KM12
LOX IMVI = test system: LOX IMVI
M14 = test system: M14
MCF7 = test system: MCF7
MDA-MB-231 = test system: MDA-MB-231
MDA-MB-435 = test system: MDA-MB-435
MDA-N = test system: MDA-N
MOLT-4 = test system: MOLT-4
NCI-H226 = test system: NCI-H226
NCI-H23 = test system: NCI-H23
NCI-H460 = test system: NCI-H460
NCI-H522 = test system: NCI-H522
NCI/ADR-RES = test system: NCI/ADR-RES
OVCAR-3 = test system: OVCAR-3
OVCAR-5 = test system: OVCAR-5
OVCAR-8 = test system: OVCAR-8
PC-3 = test system: PC-3
RPMI-8226 = test system: RPMI-8226
RXF 393 = test system: RXF 393
SF-268 = test system: SF-268
SF-295 = test system: SF-295
SF-539 = test system: SF-539
SK-MEL-28 = test system: SK-MEL-28
SK-MEL-2 = test system: SK-MEL-2
SK-MEL-5 = test system: SK-MEL-5
SK-OV-3 = test system: SK-OV-3
SN12C = test system: SN12C
SNB-19 = test system: SNB-19
SNB-75 = test system: SNB-75
SR = test system: SR
SW-620 = test system: SW-620
T47D = test system: T47D
TK-10 = test system: TK-10
U-251 = test system: U-251
UACC-257 = test system: UACC-257
UACC-62 = test system: UACC-62
UO-31 = test system: UO-31

What does the source list for `O=C(CCc1ccc(O)c(O)c1)NCCc1cc(OCc2ccccc2)cc(OCc2ccccc2)c1`?
GI50 (786-0): 13.3 µM (inactive); GI50 (A498): 15.7 µM (inactive); GI50 (A549): 16.7 µM (inactive); GI50 (ACHN): 5.47 µM (inactive); GI50 (BT-549): 6.07 µM (inactive); GI50 (CAKI-1): 4.45 µM (inactive); GI50 (CCRF-CEM): 1.77 µM (inactive); GI50 (COLO 205): 2.81 µM (inactive); GI50 (DU-145): 14.1 µM (inactive); GI50 (EKVX): 13.1 µM (inactive); GI50 (HCC 2998): 9.86 µM (inactive); GI50 (HCT-116): 11.8 µM (inactive); GI50 (HCT-15): 3.03 µM; GI50 (HL-60): 2.51 µM (inactive); GI50 (HOP-62): 13.1 µM (inactive); GI50 (HOP-92): 8.87 µM (inactive); GI50 (HT-29): 10.1 µM (inactive); GI50 (Hs-578T): 9.29 µM (inactive); GI50 (IGROV-1): 5.93 µM (inactive); GI50 (K562): 5.92 µM (inactive); GI50 (KM12): 8.99 µM (inactive); GI50 (LOX IMVI): 10.4 µM (inactive); GI50 (M14): 12.1 µM (inactive); GI50 (MCF7): 12 µM (inactive); GI50 (MDA-MB-231): 16.6 µM (inactive); GI50 (MDA-MB-435): 12.2 µM (inactive); GI50 (MDA-N): 11 µM (inactive); GI50 (MOLT-4): 2.52 µM (inactive); GI50 (NCI-H226): 20.1 µM (inactive); GI50 (NCI-H23): 14.1 µM (inactive); GI50 (NCI-H460): 5.55 µM (inactive); GI50 (NCI-H522): 1.79 µM (inactive); GI50 (NCI/ADR-RES): 13.1 µM (inactive); GI50 (OVCAR-3): 5.92 µM (inactive); GI50 (OVCAR-5): 13.1 µM (inactive); GI50 (OVCAR-8): 13.6 µM (inactive); GI50 (PC-3): 8.09 µM (inactive); GI50 (RPMI-8226): 5.27 µM (inactive); GI50 (RXF 393): 10.1 µM (inactive); GI50 (SF-268): 8.45 µM (inactive); GI50 (SF-295): 18.1 µM (inactive); GI50 (SF-539): 11.7 µM (inactive); GI50 (SK-MEL-28): 10.8 µM (inactive); GI50 (SK-MEL-2): 17.9 µM (inactive); GI50 (SK-MEL-5): 12.2 µM (inactive); GI50 (SK-OV-3): 14 µM (inactive); GI50 (SN12C): 10.4 µM (inactive); GI50 (SNB-19): 3.71 µM (inactive); GI50 (SNB-75): 4.98 µM (inactive); GI50 (SR): 2.88 µM (inactive); GI50 (SW-620): 7.1 µM (inactive); GI50 (T47D): 16.4 µM (inactive); GI50 (TK-10): 16.3 µM (inactive); GI50 (U-251): 5.77 µM (inactive); GI50 (UACC-257): 28.1 µM (inactive); GI50 (UACC-62): 14.9 µM (inactive); GI50 (UO-31): 2.13 µM (inactive)
